# ChEMBL document CHEMBL3885881, “DrugMatrix”
# Organism: Rattus norvegicus
# Test: DrugMatrix - Regimen: Daily Repeat
# Type: toxicity, organism-based, Sprague-Dawley
# Design: regimen Daily Repeat, gender Male, age 6-8 weeks
# Conditions: in vivo, po, route oral GAVAGE, vehicle .5 % CMC; for ABSOLUTE BASOPHIL / ABSOLUTE EOSINOPHIL / ABSOLUTE LYMPHOCYTE / ABSOLUTE MONOCYTE / ABSOLUTE SEGMENTED NEUTROPHIL / BASOPHIL / EOSINOPHIL / ERYTHROCYTE COUNT / HEMATOCRIT / HEMOGLOBIN / LEUKOCYTE COUNT / LYMPHOCYTE / MEAN CORPUSCULAR HEMOGLOBIN / MEAN CORPUSCULAR HEMOGLOBIN CONCENTRATION / MEAN CORPUSCULAR VOLUME / MONOCYTE / NEUTROPHIL / NUCLEATED RED BLOOD CELLS / PLATELET COUNT: tissue Blood; for ALANINE AMINOTRANSFERASE / ALBUMIN / ALKALINE PHOSPHATASE / ASPARTATE AMINOTRANSFERASE / BLOOD UREA NITROGEN / CARBON DIOXIDE / CHLORIDE / CHOLESTEROL / CREATINE PHOSPHOKINASE / CREATININE / GLUCOSE / LACTATE DEHYDROGENASE / LIPASE / PHOSPHORUS / POTASSIUM / SODIUM / TOTAL BILIRUBIN / TOTAL PROTEIN / URIC ACID: tissue Plasma
# [1] = 0 mg/kg, 72 h, dose level Control, time 3 day
# [2] = 0 mg/kg, 120 h, dose level Control, time 5 day
# [3] = 60 mg/kg, 72 h, dose level Low, time 3 day
# [4] = 60 mg/kg, 120 h, dose level Low, time 5 day
compound,measurement,setting,value
CC(C)[C@H]1CC[C@H](C(=O)N[C@H](Cc2ccccc2)C(=O)O)CC1 [NATEGLINIDE],ABSOLUTE BASOPHIL,[1],0 CELLS/uL
same,ABSOLUTE EOSINOPHIL,[1],35.67 CELLS/uL
same,ABSOLUTE LYMPHOCYTE,[1],9125.17 CELLS/uL
same,ABSOLUTE MONOCYTE,[1],50.17 CELLS/uL
same,ABSOLUTE SEGMENTED NEUTROPHIL,[1],722.33 CELLS/uL
same,BASOPHIL,[1],0%
same,EOSINOPHIL,[1],0.33%
same,ERYTHROCYTE COUNT,[1],5.35 x10E6/uL
same,HEMATOCRIT,[1],33.58%
same,HEMOGLOBIN,[1],13.35 G/DL
same,LEUKOCYTE COUNT,[1],9.93 x10E3/uL
same,LYMPHOCYTE,[1],91.67%
same,MEAN CORPUSCULAR HEMOGLOBIN,[1],25 pg
same,MEAN CORPUSCULAR HEMOGLOBIN CONCENTRATION,[1],39.8 G/DL
same,MEAN CORPUSCULAR VOLUME,[1],62.77 fL
same,MONOCYTE,[1],0.67%
same,NEUTROPHIL,[1],7.33%
same,NUCLEATED RED BLOOD CELLS,[1],0 /100WBC
same,PLATELET COUNT,[1],866.17 x10E3/uL
same,ALANINE AMINOTRANSFERASE,[1],57.17 u/L
same,ALBUMIN,[1],4.22 G/DL
same,ALKALINE PHOSPHATASE,[1],391 u/L
same,ASPARTATE AMINOTRANSFERASE,[1],95.17 u/L
same,BLOOD UREA NITROGEN,[1],13.67 mg/dL
same,CARBON DIOXIDE,[1],30 mmol/L
same,CHLORIDE,[1],102.5 MEQ/L
same,CHOLESTEROL,[1],72 mg/dL
same,CREATINE PHOSPHOKINASE,[1],485.67 u/L
same,CREATININE,[1],0.27 mg/dL
same,GLUCOSE,[1],152 mg/dL
same,LACTATE DEHYDROGENASE,[1],372.67 u/L
same,LIPASE,[1],9.83 u/L
same,PHOSPHORUS,[1],12.47 mg/dL
same,POTASSIUM,[1],6.81 MEQ/L
same,SODIUM,[1],144.1 MEQ/L
same,TOTAL BILIRUBIN,[1],0.23 mg/dL
same,TOTAL PROTEIN,[1],5.93 G/DL
same,URIC ACID,[1],1.9 mg/dL
same,ABSOLUTE BASOPHIL,[2],0 CELLS/uL
same,ABSOLUTE EOSINOPHIL,[2],67.33 CELLS/uL
same,ABSOLUTE LYMPHOCYTE,[2],11419.17 CELLS/uL
same,ABSOLUTE MONOCYTE,[2],203.17 CELLS/uL
same,ABSOLUTE SEGMENTED NEUTROPHIL,[2],1327 CELLS/uL
same,BASOPHIL,[2],0%
same,EOSINOPHIL,[2],0.5%
same,ERYTHROCYTE COUNT,[2],5.65 x10E6/uL
same,HEMATOCRIT,[2],35.3%
same,HEMOGLOBIN,[2],13.98 G/DL
same,LEUKOCYTE COUNT,[2],13.02 x10E3/uL
same,LYMPHOCYTE,[2],88%
same,MEAN CORPUSCULAR HEMOGLOBIN,[2],24.78 pg
same,MEAN CORPUSCULAR HEMOGLOBIN CONCENTRATION,[2],39.63 G/DL
same,MEAN CORPUSCULAR VOLUME,[2],62.58 fL
same,MONOCYTE,[2],1.33%
same,NEUTROPHIL,[2],10.17%
same,NUCLEATED RED BLOOD CELLS,[2],0 /100WBC
same,PLATELET COUNT,[2],1213.83 x10E3/uL
same,ALANINE AMINOTRANSFERASE,[2],49.67 u/L
same,ALBUMIN,[2],4.28 G/DL
same,ALKALINE PHOSPHATASE,[2],362.33 u/L
same,ASPARTATE AMINOTRANSFERASE,[2],99 u/L
same,BLOOD UREA NITROGEN,[2],20.67 mg/dL
same,CARBON DIOXIDE,[2],26.33 mmol/L
same,CHLORIDE,[2],102 MEQ/L
same,CHOLESTEROL,[2],63.83 mg/dL
same,CREATINE PHOSPHOKINASE,[2],481.83 u/L
same,CREATININE,[2],0.21 mg/dL
same,GLUCOSE,[2],158 mg/dL
same,LACTATE DEHYDROGENASE,[2],656.33 u/L
same,LIPASE,[2],10.67 u/L
same,PHOSPHORUS,[2],12.27 mg/dL
same,POTASSIUM,[2],6.17 MEQ/L
same,SODIUM,[2],143.35 MEQ/L
same,TOTAL BILIRUBIN,[2],0.17 mg/dL
same,TOTAL PROTEIN,[2],6.13 G/DL
same,URIC ACID,[2],1.48 mg/dL
same,ABSOLUTE BASOPHIL,[3],0 CELLS/uL
same,ABSOLUTE EOSINOPHIL,[3],0 CELLS/uL
same,ABSOLUTE LYMPHOCYTE,[3],9045.33 CELLS/uL
same,ABSOLUTE MONOCYTE,[3],160.67 CELLS/uL
same,ABSOLUTE SEGMENTED NEUTROPHIL,[3],994 CELLS/uL
same,BASOPHIL,[3],0%
same,EOSINOPHIL,[3],0%
same,ERYTHROCYTE COUNT,[3],5.13 x10E6/uL
same,HEMATOCRIT,[3],32.57%
same,HEMOGLOBIN,[3],13.4 G/DL
same,LEUKOCYTE COUNT,[3],10.2 x10E3/uL
same,LYMPHOCYTE,[3],88.33%
same,MEAN CORPUSCULAR HEMOGLOBIN,[3],26.2 pg
same,MEAN CORPUSCULAR HEMOGLOBIN CONCENTRATION,[3],41.17 G/DL
same,MEAN CORPUSCULAR VOLUME,[3],63.67 fL
same,MONOCYTE,[3],1.67%
same,NEUTROPHIL,[3],10%
same,NUCLEATED RED BLOOD CELLS,[3],0 /100WBC
same,PLATELET COUNT,[3],720 x10E3/uL
same,ALANINE AMINOTRANSFERASE,[3],53.67 u/L
same,ALBUMIN,[3],4.27 G/DL
same,ALKALINE PHOSPHATASE,[3],449.67 u/L
same,ASPARTATE AMINOTRANSFERASE,[3],94.67 u/L
same,BLOOD UREA NITROGEN,[3],17 mg/dL
same,CARBON DIOXIDE,[3],30.33 mmol/L
same,CHLORIDE,[3],103.67 MEQ/L
same,CHOLESTEROL,[3],73.67 mg/dL
same,CREATINE PHOSPHOKINASE,[3],447.67 u/L
same,CREATININE,[3],0.2 mg/dL
same,GLUCOSE,[3],149 mg/dL
same,LACTATE DEHYDROGENASE,[3],345.33 u/L
same,LIPASE,[3],8.67 u/L
same,PHOSPHORUS,[3],13 mg/dL
same,POTASSIUM,[3],6.04 MEQ/L
same,SODIUM,[3],145.07 MEQ/L
same,TOTAL BILIRUBIN,[3],0.13 mg/dL
same,TOTAL PROTEIN,[3],5.87 G/DL
same,URIC ACID,[3],1.33 mg/dL
same,ABSOLUTE BASOPHIL,[4],0 CELLS/uL
same,ABSOLUTE EOSINOPHIL,[4],124 CELLS/uL
same,ABSOLUTE LYMPHOCYTE,[4],13794 CELLS/uL
same,ABSOLUTE MONOCYTE,[4],49 CELLS/uL
same,ABSOLUTE SEGMENTED NEUTROPHIL,[4],933 CELLS/uL
same,BASOPHIL,[4],0%
same,EOSINOPHIL,[4],0.67%
same,ERYTHROCYTE COUNT,[4],5.42 x10E6/uL
same,HEMATOCRIT,[4],34.03%
same,HEMOGLOBIN,[4],13.53 G/DL
same,LEUKOCYTE COUNT,[4],14.9 x10E3/uL
same,LYMPHOCYTE,[4],92.33%
same,MEAN CORPUSCULAR HEMOGLOBIN,[4],25 pg
same,MEAN CORPUSCULAR HEMOGLOBIN CONCENTRATION,[4],39.77 G/DL
same,MEAN CORPUSCULAR VOLUME,[4],62.87 fL
same,MONOCYTE,[4],0.33%
same,NEUTROPHIL,[4],6.67%
same,NUCLEATED RED BLOOD CELLS,[4],0 /100WBC
same,PLATELET COUNT,[4],1175.33 x10E3/uL
same,ALANINE AMINOTRANSFERASE,[4],57.67 u/L
same,ALBUMIN,[4],4.2 G/DL
same,ALKALINE PHOSPHATASE,[4],396.67 u/L
same,ASPARTATE AMINOTRANSFERASE,[4],87 u/L
same,BLOOD UREA NITROGEN,[4],20 mg/dL
same,CARBON DIOXIDE,[4],25 mmol/L
same,CHLORIDE,[4],104 MEQ/L
same,CHOLESTEROL,[4],56 mg/dL
same,CREATINE PHOSPHOKINASE,[4],315 u/L
same,CREATININE,[4],0.27 mg/dL
same,GLUCOSE,[4],169.67 mg/dL
same,LACTATE DEHYDROGENASE,[4],303.33 u/L
same,LIPASE,[4],10.67 u/L
same,PHOSPHORUS,[4],12.97 mg/dL
same,POTASSIUM,[4],5.61 MEQ/L
same,SODIUM,[4],144.73 MEQ/L
same,TOTAL BILIRUBIN,[4],0.23 mg/dL
same,TOTAL PROTEIN,[4],5.93 G/DL
same,URIC ACID,[4],1.37 mg/dL
